ChEMBL document CHEMBL4706474, “Tetrahydro-2-naphthyl and 2-Indanyl Triazolopyrimidines Targeting Plasmodium falciparum Dihydroorotate Dehydrogenase Display Potent and Selective Antimalarial Activity” (J Med Chem, 2016)
Converted amounts (≈) assume the structure as drawn.

Tested on: not listed separately
Assay: Kinetic solubility of compound in phosphate buffer at pH 6.5 measured after 30 mins by HPLC-UV based analysis
Type: physicochemical
Details: buffer, pH 6.5, 0.5 h

| SMILES | Kinetic_solubility |
| --- | --- |
| Cc1cc(NC2CCc3cc(Br)ccc3C2)n2nc(C(C)(F)F)nc2n1 (stereo in doubt; 12) | 3.1 µg/mL |

Same assay, conditions: phosphate buffer, pH 6.5, read-out: Kinetic_solubility

| SMILES | solubility kinetic at 0.5 h |
| --- | --- |
| Cc1cc(NC2Cc3cccc(F)c3C2)n2nc(C(C)(F)F)nc2n1 (centres undefined) | 12.5 µg/mL (≈ 36 µM) |
| Cc1cc(NC2Cc3cccc(C(F)(F)F)c3C2)n2nc(C(C)(F)F)nc2n1 (centres undefined) | 6.3 µg/mL (≈ 15.9 µM) |
| Cc1cc(NC2Cc3c(F)ccc(F)c3C2)n2nc(C(C)(F)F)nc2n1 | 6.3 µg/mL (≈ 17.2 µM) |
| Cc1cc(NC2CCc3cc(F)c(C(F)(F)F)cc3C2)n2nc(C(C)(F)F)nc2n1 (centres undefined) | 3.1 µg/mL (≈ 7.22 µM) |
| Cc1cc(NC2CCc3cc(F)ccc3C2)n2nc(C(C)(F)F)nc2n1 (centres undefined) | 6.3 µg/mL (≈ 17.4 µM) |
| Cc1cc(NC2CCc3ccc(Cl)cc3C2)n2nc(C(F)(F)F)nc2n1 (stereo in doubt; 24) | 1.6 µg/mL (≈ 4.19 µM) |

Tested on: not listed separately
Assay: Intrinsic clearance in human pooled liver microsomes assessed per mg protein at 1 uM by LC-MS analysis
Type: ADME, Microsome
Details: microsomes, 1 µM

| SMILES | microsomal intrinsic clearance |
| --- | --- |
| Cc1cc(NC2CCc3cc(Br)ccc3C2)n2nc(C(C)(F)F)nc2n1 (stereo in doubt; 12) | < 7 µL/min |
| Cc1cc(NC2Cc3cccc(F)c3C2)n2nc(C(C)(F)F)nc2n1 (centres undefined) | 11 µL/min |
| Cc1cc(NC2Cc3cccc(C(F)(F)F)c3C2)n2nc(C(C)(F)F)nc2n1 (centres undefined) | 30 µL/min |
| Cc1cc(NC2Cc3c(F)ccc(F)c3C2)n2nc(C(C)(F)F)nc2n1 | 33 µL/min |
| Cc1cc(NC2CCc3cc(F)c(C(F)(F)F)cc3C2)n2nc(C(C)(F)F)nc2n1 (centres undefined) | < 7 µL/min |
| Cc1cc(NC2CCc3cc(F)ccc3C2)n2nc(C(C)(F)F)nc2n1 (centres undefined) | 14 µL/min |
| Cc1cc(NC2CCc3ccc(Cl)cc3C2)n2nc(C(F)(F)F)nc2n1 (stereo in doubt; 24) | 9 µL/min |

Tested on: not listed separately
Assay: Intrinsic clearance in mouse liver microsomes at 1 uM by LC-MS analysis
Type: ADME, Microsome
Details: not given

| SMILES | intrinsic clearance |
| --- | --- |
| Cc1cc(NC2CCc3cc(Br)ccc3C2)n2nc(C(C)(F)F)nc2n1 (stereo in doubt; 12) | 40 µL/min |
| Cc1cc(NC2Cc3cccc(F)c3C2)n2nc(C(C)(F)F)nc2n1 (centres undefined) | 76 µL/min |
| Cc1cc(NC2Cc3cccc(C(F)(F)F)c3C2)n2nc(C(C)(F)F)nc2n1 (centres undefined) | 119 µL/min |
| Cc1cc(NC2Cc3c(F)ccc(F)c3C2)n2nc(C(C)(F)F)nc2n1 | 1500 µL/min |
| Cc1cc(NC2CCc3cc(F)c(C(F)(F)F)cc3C2)n2nc(C(C)(F)F)nc2n1 (centres undefined) | 17 µL/min |
| Cc1cc(NC2CCc3cc(F)ccc3C2)n2nc(C(C)(F)F)nc2n1 (centres undefined) | 122 µL/min |
| Cc1cc(NC2CCc3ccc(Cl)cc3C2)n2nc(C(F)(F)F)nc2n1 (stereo in doubt; 24) | 24 µL/min |

Tested on: not listed separately
Assay: Inhibition of N-terminal His6-tagged Plasmodium falciparum DHODH expressed in Escherichia coli BL21 using L-DHO as substrate and CoQ as co-substrate by DCIP dye based spectrophotometric assay
Details: not given

| SMILES | IC50 |
| --- | --- |
| Cc1cc(NC2CCc3cc(Br)ccc3C2)n2nc(C(C)(F)F)nc2n1 (stereo in doubt; 12) | 790 nM |
| Cc1cc(NC2Cc3cccc(F)c3C2)n2nc(C(C)(F)F)nc2n1 (centres undefined) | 52 nM |
| Cc1cc(NC2Cc3cccc(C(F)(F)F)c3C2)n2nc(C(C)(F)F)nc2n1 (centres undefined) | 66 nM |
| Cc1cc(NC2Cc3c(F)ccc(F)c3C2)n2nc(C(C)(F)F)nc2n1 | 65 nM |
| Cc1cc(NC2CCc3cc(F)c(C(F)(F)F)cc3C2)n2nc(C(C)(F)F)nc2n1 (centres undefined) | 89 nM |
| Cc1cc(NC2CCc3ccc(Cl)cc3C2)n2nc(C(F)(F)F)nc2n1 (stereo in doubt; 24) | 15 nM |

Tested on: Plasmodium falciparum
Assay: Antiplasmodial activity against Plasmodium falciparum 3D7 infected in RBC assessed as reduction in parasitemia incubated for 72 hrs by SYBR green dye-based assay
Type: functional, organism-based
Details: Plasmodium falciparum, 3D7, Erythrocyte, 72 h

| SMILES | EC50 |
| --- | --- |
| Cc1cc(NC2Cc3cccc(F)c3C2)n2nc(C(C)(F)F)nc2n1 (centres undefined) | 64 nM |
| Cc1cc(NC2Cc3cccc(C(F)(F)F)c3C2)n2nc(C(C)(F)F)nc2n1 (centres undefined) | 4.3 nM |
| Cc1cc(NC2Cc3c(F)ccc(F)c3C2)n2nc(C(C)(F)F)nc2n1 | 46 nM |
| Cc1cc(NC2CCc3cc(F)c(C(F)(F)F)cc3C2)n2nc(C(C)(F)F)nc2n1 (centres undefined) | 97 nM |

Same assay, conditions: rbc

| SMILES | EC50 |
| --- | --- |
| Cc1cc(NC2CCc3cc(Br)ccc3C2)n2nc(C(C)(F)F)nc2n1 (stereo in doubt; 12) | 140 nM |
| Cc1cc(NC2CCc3ccc(Cl)cc3C2)n2nc(C(F)(F)F)nc2n1 (stereo in doubt; 24) | 33 nM |

Tested on: not listed separately
Assay: Intrinsic clearance in rat liver microsomes assessed per mg protein at 1 uM by LC-MS analysis
Type: ADME, Microsome
Details: microsomes, 1 µM

| SMILES | Intrinsic clearance in rat liver microsomes (uL/min/mg protein) |
| --- | --- |
| Cc1cc(NC2Cc3cccc(F)c3C2)n2nc(C(C)(F)F)nc2n1 (centres undefined) | 72 µL/min |
| Cc1cc(NC2Cc3cccc(C(F)(F)F)c3C2)n2nc(C(C)(F)F)nc2n1 (centres undefined) | 61 µL/min |
| Cc1cc(NC2Cc3c(F)ccc(F)c3C2)n2nc(C(C)(F)F)nc2n1 | 1013 µL/min |
| Cc1cc(NC2CCc3cc(F)c(C(F)(F)F)cc3C2)n2nc(C(C)(F)F)nc2n1 (centres undefined) | 13 µL/min |
| Cc1cc(NC2CCc3cc(F)ccc3C2)n2nc(C(C)(F)F)nc2n1 (centres undefined) | 39 µL/min |

Tested on: not listed separately
Assay: Inhibition of N-terminal His6-tagged Plasmodium vivax DHODH expressed in Escherichia coli BL21 using L-DHO as substrate and CoQ as co-substrate by DCIP dye based spectrophotometric assay
Details: not given

| SMILES | IC50 |
| --- | --- |
| Cc1cc(NC2CCc3cc(Br)ccc3C2)n2nc(C(C)(F)F)nc2n1 (stereo in doubt; 12) | 2100 nM |
| Cc1cc(NC2Cc3cccc(F)c3C2)n2nc(C(C)(F)F)nc2n1 (centres undefined) | 300 nM |
| Cc1cc(NC2Cc3cccc(C(F)(F)F)c3C2)n2nc(C(C)(F)F)nc2n1 (centres undefined) | 280 nM |
| Cc1cc(NC2Cc3c(F)ccc(F)c3C2)n2nc(C(C)(F)F)nc2n1 | 150 nM |
| Cc1cc(NC2CCc3cc(F)c(C(F)(F)F)cc3C2)n2nc(C(C)(F)F)nc2n1 (centres undefined) | 390 nM |

Target: Dihydroorotate dehydrogenase (quinone), mitochondrial (Homo sapiens, UniProt Q02127)
Assay: Inhibition of N-terminal His6-tagged human DHODH expressed in Escherichia coli BL21 using L-DHO as substrate and CoQ as co-substrate by DCIP dye based spectrophotometric assay
Details: not given

Dihydroorotate dehydrogenase (quinone), mitochondrial, sequence (Q02127 whole entry): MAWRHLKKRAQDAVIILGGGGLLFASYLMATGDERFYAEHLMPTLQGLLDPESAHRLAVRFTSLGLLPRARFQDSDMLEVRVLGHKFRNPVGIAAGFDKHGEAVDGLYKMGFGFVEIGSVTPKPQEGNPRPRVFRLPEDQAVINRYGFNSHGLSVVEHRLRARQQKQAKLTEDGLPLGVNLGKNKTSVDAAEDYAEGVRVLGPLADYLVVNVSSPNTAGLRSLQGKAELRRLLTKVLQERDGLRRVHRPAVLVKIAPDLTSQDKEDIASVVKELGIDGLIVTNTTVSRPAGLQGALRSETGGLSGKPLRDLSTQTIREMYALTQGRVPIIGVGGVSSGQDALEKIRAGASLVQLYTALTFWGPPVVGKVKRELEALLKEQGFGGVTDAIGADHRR

| SMILES | IC50 |
| --- | --- |
| Cc1cc(NC2Cc3cccc(F)c3C2)n2nc(C(C)(F)F)nc2n1 (centres undefined) | > 100000 nM |
| Cc1cc(NC2Cc3cccc(C(F)(F)F)c3C2)n2nc(C(C)(F)F)nc2n1 (centres undefined) | > 100000 nM |
| Cc1cc(NC2Cc3c(F)ccc(F)c3C2)n2nc(C(C)(F)F)nc2n1 | > 100000 nM |
| Cc1cc(NC2CCc3cc(F)c(C(F)(F)F)cc3C2)n2nc(C(C)(F)F)nc2n1 (centres undefined) | > 100000 nM |
| Cc1cc(NC2CCc3cc(F)ccc3C2)n2nc(C(C)(F)F)nc2n1 (centres undefined) | > 100000 nM |

Tested on: not listed separately
Assay: Lipophilicity, logD of the compound at pH 7.4
Type: physicochemical
Details: buffer

| SMILES | logD |
| --- | --- |
| Cc1cc(NC2Cc3cccc(F)c3C2)n2nc(C(C)(F)F)nc2n1 (centres undefined) | 3.3 |
| Cc1cc(NC2Cc3cccc(C(F)(F)F)c3C2)n2nc(C(C)(F)F)nc2n1 (centres undefined) | 3.7 |
| Cc1cc(NC2Cc3c(F)ccc(F)c3C2)n2nc(C(C)(F)F)nc2n1 | 3.2 |
| Cc1cc(NC2CCc3cc(F)c(C(F)(F)F)cc3C2)n2nc(C(C)(F)F)nc2n1 (centres undefined) | 4 |
| Cc1cc(NC2CCc3cc(F)ccc3C2)n2nc(C(C)(F)F)nc2n1 (centres undefined) | 3.5 |
| Cc1cc(NC2CCc3ccc(Cl)cc3C2)n2nc(C(F)(F)F)nc2n1 (stereo in doubt; 24) | 4.1 |
